Data published in a melting point compilation (Tetko et al.; mined from patent text by program, amines drawn as free bases though some values may be those of a salt).

melting point [°C]	SMILES
215	O=C(c1cc(=O)c2cc3[nH]c(=O)oc3cc2[nH]1)N1CCC(Cc2ccccc2)CC1
233 to 235	O=C(NC(=O)c1c(F)cccc1F)Nc1cncc(C(F)(F)F)c1
174 to 176	Cc1cccc(C)c1OC(=O)c1ccccc1C(=O)Oc1c(C)cccc1C
108 to 109	CCCCCCCCCCNC(=O)c1cc(NCC(=O)OC)cc(C(=O)NCCCCCCCCCC)c1
153 to 155	O=C(O)c1cc(OCC(F)(F)F)c(Cl)cc1[N+](=O)[O-]
69	O=C(C1CCCC1)[C@H]1CCn2c(cc3ccccc32)C1
141 to 143	Cc1cc(C)cc(-c2nc(N)sc2-c2ccnc(OCc3ccccc3)c2)c1
132 to 136	CC(C)c1cc(CN2C(=O)C3(COc4cc5c(cc43)OCO5)c3ccccc32)on1 (stereo not drawn)
87 to 90	Nc1cccc2nccnc12
237 to 239	CNc1nc(-c2cccc(-c3ccc4nccn4c3)c2)c2cc(OC)c(OC)cc2n1
218 to 220	CC(C)(C)c1cc(CCC2(CCc3cc(C(C)(C)C)c(O)c(C(C)(C)C)c3)NC(=O)NC2=O)cc(C(C)(C)C)c1O
201 to 203	Cc1noc(C)c1COc1ccc(C(=O)O)c(O)c1
171 to 173	NS(=O)(=O)c1cc2cc(CBr)ccc2s1
243 to 245	CCn1cc(C(=O)O)c(=O)cc1-c1ccc(O)cc1
155	O=C(CC1CC(O)CO1)NC1CCC(CCN2CCN(c3nccc4c3CCO4)CC2)CC1 (stereo not drawn)
117 to 121	C=CCn1c(CC)nc2nc3cc(Cl)ccc3nc21
94 to 95	COc1cc(COc2nn(C)cc2C(C)O)ccc1OCc1nc(-c2ccccc2)oc1C (stereo not drawn)
176 to 178	Cn1cc(C=CC(=O)NCCO)c([N+](=O)[O-])n1
52 to 54	CN(CSC(C)(C)CC(C)(C)C)C(=O)Nc1cccc(C(F)(F)F)c1
199 to 200	CC(=O)NCc1cccc(-c2nc(=O)c3ccccc3s2)n1
203 to 204	CCCc1c(OCc2ccc(C=CC(=O)O)cc2)ccc(C(C)=O)c1O
92 to 94	CC(=O)SCC(Cc1ccccc1)NC(=O)OC(C)(C)C (stereo not drawn)
178 to 180	N#Cc1cccc(C(=O)N2CCN(c3ccc(NC(=O)c4ccccc4-c4ccc(C(F)(F)F)cc4)cc3)CC2)c1
> 210	COc1ccc(F)c2c(O)c3cnccc3cc12

melting point [°C]	SMILES
88	O=C1c2ccc(SCc3ccccc3)cc2CC1Br (stereo not drawn)
173 to 176	COc1ccc(/C=C/C(=O)CC(=O)/C=C/c2ccc(O)c(F)c2)cc1O
108 to 110	CC(C)(O)CCOc1c(-c2ccc(S(C)(=O)=O)cc2)cnn(-c2ccc(F)c(Cl)c2)c1=O
208	CCCOc1ccccc1-c1nc2nc(NC3CC3)ncc2c(=O)[nH]1
156 to 158	[O-][N+]1=Cc2cccc3c2C(C1)c1ccccc1CC3 (stereo not drawn)
184 to 185	COc1ccc(CC(CS)C(=O)Nc2cccc(C(=O)O)c2)cc1 (stereo not drawn)
88 to 90	CCON=C(C(C)=NOCc1ccccc1C(=NOC)C(=O)NC)c1ccc(OC[Si](C)(C)c2ccc(F)cc2)cc1
138	O=C(c1ccc(F)cc1)C1CCN(CCCn2c(=O)[nH]c3cccc(Cl)c32)CC1
182 to 184	COc1c(OCCn2c([N+](=O)[O-])cnc2C)cnc(CNc2nc(C)nc(C)c2Cl)c1C
128	Fc1ccc2[nH]cc(CCc3ccncc3)c2c1
70 to 71	CCc1nc(NC2CCCC2)c(-c2ccccc2)c(NC2CCCC2)n1
136 to 139	C#Cc1cc(Oc2cnc(NC(CO)CO)nc2N)c(C(C)C)cc1OC
57 to 58	CCCCCCCCCCCCCCOC(=O)CNC(=O)OCc1ccccc1
68	Fc1ccc(C(=Cc2ccccc2Cl)CBr)cc1
201 to 203	COc1cc(F)ccc1C(=O)NC(C)c1nc(-c2ccncn2)cc(=O)n1C (racemic)
160 to 162	Cc1ccc(NC(=O)Nc2cccc(C(F)(F)F)c2)cc1/C=C/n1cnc2c(NC3CC3)ncnc21
91 to 93	C#CCOc1ccc(CCN(OS(C)(=O)=O)C(=O)Cc2ccc(Cl)cc2)cc1OC
122 to 124	CC(=O)OC(CF)c1ccccc1S(N)(=O)=O (stereo not drawn)
104 to 108	CC(C)(Oc1ccc(Cl)cc1Cl)C(=O)C(Cc1ccc(Cl)cc1)n1cncn1 (stereo not drawn)
207 to 208	O=C(Nc1ccccc1)c1cnc2c(C(F)(F)F)cccc2c1-c1ccccc1
159 to 161	CC(C)(S)[C@@H]1C[C@H](CS)C(=O)N1 (relative stereo)
203 to 205	O=Cc1c[nH]c2c(F)cccc12
246	COCCN1Cc2c(cnc3c(NC(=O)c4c(Cl)cccc4Cl)cccc23)C1=O
77 to 80	CC(C)(Cn1cncn1)C(O)(CCc1ccc2ccccc2c1)Cn1cncn1 (stereo not drawn)

melting point [°C]	SMILES
173 to 174	CC(C)CC(NC(=O)C(NC(=O)OCc1ccccc1)C(C(=O)O)C(C)(C)C)C(=O)NC(CCCCNC(=O)OC(C)(C)C)C(=O)O (stereo not drawn)
215	Cc1cc(O)n2nc(CS)nc2n1
86 to 87	CCCCCCCCCCCCCCCCc1nc(N(C)C)nc(C)c1O
32 to 34.5	Cc1cc(Cl)cc(CO)c1
248 to 249	NC(=O)[C@H]1NC(=O)[C@H]1NC(=O)OCc1ccccc1
55 to 60	CC(=CCCCC(C)(C)O)c1cccc(C=Cc2cc(O)cc(O)c2)c1
272 to 276	CN(C=O)C1C(O)CC2C3CCc4cc(O)ccc4C3CCC21C (stereo not drawn)
122 to 123	O=C(NCc1cccnc1)c1ccnc(N2CCN(CC3CC3)C2=O)c1
207 to 209	COc1cc(NC(=O)c2cc(Br)ccc2O)cc(OC)c1
205 to 206	CCOC(=O)c1cn(CCCl)c2nc(N3CCN(C(C)=O)CC3)ncc2c1=O
66 to 68	COC(=O)c1ccc(OC)c(F)c1F
159 to 170	Cc1cccc(NC(=O)NC2N=C(C3CCCCC3)c3cccc(C)c3N(CC(=O)C3CCCCC3)C2=O)c1 (stereo not drawn)
144 to 145	CCOC(=O)C(=CNc1ccc(F)c(N2CCN(C(=O)OCC)CC2)n1)C(=O)OCC
73 to 74.5	CCCc1c(OCCCOc2ccc3c(c2CCC)OC(C)(CCC(=O)OC)CC3=O)ccc(C(C)=O)c1O (stereo not drawn)
> 350	O=c1[nH]ncc2c1c(O)nc1ccccc12
245 to 246	COc1cc(OC)c2c(=O)[nH]c(-c3cccc(OCCO)c3)nc2c1
233 to 234	Cc1cc(Br)cnc1CCCCNC1=NS(=O)(=O)c2cc(-c3ccccn3)ccc21
174 to 175	CC(=O)c1c(N)ncn1C1c2ccccc2CC1(C)C (stereo not drawn)
120 to 122	CON=Cc1c(S(N)(=O)=O)ccn1C
114 to 116	Cc1cnc(Cn2ncc(-c3ccc(S(C)(=O)=O)cc3)c(-c3ccc(F)cc3)c2=O)s1
63 to 64	CCCCCCCCCCCCCCCCNc1ccc(C#N)cc1
115 to 117	CCCCc1nn(-c2cc(NC(=S)CCC)ccc2Cl)c(=O)n1Cc1ccc(-c2ccccc2S(=O)(=O)NC(=O)OC(C)(C)C)cc1F
188 to 189	Cc1ccc([N+](=O)[O-])c(C(=O)Nc2ccc(-n3nc(C(F)(F)F)cc3C(F)(F)F)cc2)c1
122 to 123	CCOC(=O)c1cnn(-c2ccc(Oc3ccc(C)cc3O)cc2)c1

melting point [°C]	SMILES
137 to 146	N#CC1=Cc2ccccc2C(N2CCN(N)CC2)c2ccccc21 (stereo not drawn)
141 to 143	CC(=O)c1ccc(F)c(COc2ccc(S(=O)(=O)c3ccc(C)nc3Nc3c(C)cc(C)cc3C)cc2)c1
222 to 231	CCOc1ccc(CCNC(=O)c2cnc3ccccc3c2)cc1S(N)(=O)=O
159	CC(C)c1[nH]c(Cl)c(C#N)c1SC#N
196	N#Cc1c(CNS(=O)(=O)c2c(F)cccc2F)nn(-c2ccc(Cl)cc2Cl)c1-c1ccc(O)cc1
130 to 133	N#CC=Cc1ccc(Cl)cc1C(=O)c1ccccc1F
149 to 151	CN(C)C(=O)CC1(C)OCCc2c1[nH]c1ccccc21 (stereo not drawn)
194 to 196	COc1cc(Nc2c(C#N)cnc3cc(OCc4cccs4)c(OC)cc23)c(Cl)cc1Cl
92 to 95	CC(=O)c1cc(Br)c(N)c(CN(C)C)c1
184 to 185	NC(=O)[C@@H]1[C@H](Nc2c(Br)cnc3[nH]c(-c4cccc(CN5CCOCC5)c4)nc23)[C@H]2C=C[C@@H]1C2
> 300	CCOC(=O)CCNC(=O)Nc1cc(-c2ccc3cc(NS(C)(=O)=O)ccc3c2)c(OC)c(C(C)(C)C)c1
122 to 125	Cn1c(CO)nc2cncnc21
> 270	O=S(=O)(O)c1ccc(NCc2ccc(Cl)cc2)cc1
185 to 187	CN1CCN(c2ccc(S(=O)(=O)Oc3c(Cl)cc(Cl)cc3Cl)cc2)C1=O
202 to 203	COc1cc(OC)c2c(=O)[nH]c(-c3ccc(OCCNC(C)C)c(-c4ccc(S(C)(=O)=O)cc4C)n3)nc2c1
240 to 250	C[C@@H](NC(=O)c1c[nH]c2ncc(-c3nn(CCCO)c4cc(Cl)ccc34)nc12)C(=O)N1CC(C#N)C1
239 to 241	Cc1nnc2cc(-c3ccccn3)ccn12
220	CC(=O)Nc1cc(Br)ccc1C(=O)O
180 to 182	CCCc1c(OCCCOc2ccc(C(=O)O)cc2Br)ccc(C(C)=O)c1O
289	COc1cc2c(O)nc(-c3ccc(Cl)cc3)nc2c(OC)c1OC
121 to 123	Oc1ccc(NCCCCCCCBr)cc1
119 to 122	CN=C(N)Nc1nc(CCCCNC(=NC#N)NC)cs1
270 to 273	COc1ccc(CN2Cc3cncn3C(c3ccc(-c4ccc(Cl)cc4)cc3)C2=O)cc1 (stereo not drawn)

SMILES	melting point [°C]
Cc1oc2c(C(O)CN)cccc2c1C (stereo not drawn)	73
O=C(Nc1nc(CN2CCC(c3c[nH]c4ccccc34)CC2)cs1)C(F)(F)F	244 to 247
O=C(Cc1ccc(Cl)cc1)NC1N=C(c2ccccc2)c2ccccc2NC1=O (stereo not drawn)	238 to 240
